Target: IDH1 R132H (Homo sapiens (Human), UniProt O75874, R132H)
Assay: Assays for IDH1 R132H Inhibitors (NADPH/aKG, resazurin detection)
Assay type: biochemical
Conditions: IDH1 R132H enzyme, Table 2; read-out: IDHR132H Activity
Procedure: Assays were conducted in a volume of […] assay buffer (150 mM NaCl, 10 mM MgCl2, 20 mM Tris pH 7.5, 0.03% bovine serum albumin) as follows in a standard 384-well plate: To 25 ul of substrate mix (8 uM NADPH, 2 mM aKG), 1 μl of test compound was added in DMSO. […] The reaction was incubated for 50 minutes at room temperature, then 25 μl of detection mix (30 μM resazurin, […]) was added and the mixture further incubated for 5 minutes at room temperature.

Chain of IDH1 R132H (O75874 whole entry R132H): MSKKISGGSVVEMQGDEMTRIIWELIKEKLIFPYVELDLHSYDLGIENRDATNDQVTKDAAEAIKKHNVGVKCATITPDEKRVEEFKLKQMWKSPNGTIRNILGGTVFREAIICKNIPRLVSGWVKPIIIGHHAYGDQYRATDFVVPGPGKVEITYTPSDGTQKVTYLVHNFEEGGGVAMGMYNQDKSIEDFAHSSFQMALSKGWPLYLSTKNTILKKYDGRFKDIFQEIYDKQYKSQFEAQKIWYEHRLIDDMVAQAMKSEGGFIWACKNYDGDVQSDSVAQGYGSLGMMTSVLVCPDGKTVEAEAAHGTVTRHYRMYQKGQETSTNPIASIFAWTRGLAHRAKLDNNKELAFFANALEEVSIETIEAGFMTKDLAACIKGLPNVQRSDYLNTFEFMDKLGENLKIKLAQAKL

| IC50 | Structure (SMILES) |
| --- | --- |
| 1 to 10 µM | CC(C)c1nc(N2CCN(C(=O)c3ccc(Cl)cc3Cl)CC2)c(C#N)c2c1COCC2 [Compound 106, 6-(4-(2,4-dichlorobenzoyl)piperazin-1-yl)-8-isopropyl-3,4-dihydro-1H-pyrano[3,4-c]pyridine-5-carbonitrile] |
| 1 to 10 µM | CC(C)c1nc(N2CCN(C(=O)NC3CCCCC3)CC2)c(C#N)c2c1COCC2 [Compound 107, 4-(5-cyano-8-isopropyl-3,4-dihydro-1H-pyrano[3,4-c]pyridin-6-yl)-N-cyclohexylpiperazine-1-carboxamide] |
| 1 to 10 µM | N#Cc1c(N2CCN(C(=O)c3ccco3)CC2)nc(C2CCCCC2)c2c1CCOC2 [Compound 110, 8-cyclohexyl-6-(4-(furan-2-carbonyl)piperazin-1-yl)-3,4-dihydro-1H-pyrano[3,4-c]pyridine-5-carbonitrile] |
| 1 to 10 µM | Cc1occc1C(=O)N1CCN(c2nc(C(C)C)c3c(c2C#N)CCOC3)CC1 [Compound 113, 8-isopropyl-6-(4-(2-methylfuran-3-carbonyl)piperazin-1-yl)-3,4-dihydro-1H-pyrano[3,4-c]pyridine-5-carbonitrile] |
| 1 to 10 µM | CC1(C)Cc2c(C#N)c(N3CCN(C(=O)c4ccco4)CC3)nc(C3CCCCC3)c2CO1 [Compound 117, 8-cyclohexyl-6-(4-(furan-2-carbonyl)piperazin-1-yl)-3,3-dimethyl-3,4-dihydro-1H-pyrano[3,4-c]pyridine-5-carbonitrile] |
| 1 to 10 µM | N#Cc1c(N2CCN(C(=O)c3c[nH]c4ccccc34)CC2)nc(C2CCCCC2)c2c1CCOC2 [Compound 118, 6-(4-(1H-indole-3-carbonyl)piperazin-1-yl)-8-cyclohexyl-3,4-dihydro-1H-pyrano[3,4-c]pyridine-5-carbonitrile] |
| 1 to 10 µM | N#Cc1c(N2CCN(C(=O)c3cccc4[nH]ccc34)CC2)nc(C2CCCCC2)c2c1CCOC2 [Compound 119, 6-(4-(1H-indole-4-carbonyl)piperazin-1-yl)-8-cyclohexyl-3,4-dihydro-1H-pyrano[3,4-c]pyridine-5-carbonitrile] |
| 1 to 10 µM | N#Cc1c(N2CCN(C(=O)c3ccoc3)CC2)nc(C2CCCCC2)c2c1CCOC2 [Compound 120, 8-cyclohexyl-6-(4-(furan-3-carbonyl)piperazin-1-yl)-3,4-dihydro-1H-pyrano[3,4-c]pyridine-5-carbonitrile] |
| 1 to 10 µM | Cc1cc(C(=O)N2CCN(c3nc(C4CCCCC4)c4c(c3C#N)CCOC4)CC2)c(C)o1 [Compound 121, 8-cyclohexyl-6-(4-(2,5-dimethylfuran-3-carbonyl)piperazin-1-yl)-3,4-dihydro-1H-pyrano[3,4-c]pyridine-5-carbonitrile] |
| 1 to 10 µM | N#Cc1c(N2CCN(C(=O)c3ccc4[nH]ccc4c3)CC2)nc(C2CCCCC2)c2c1CCOC2 [Compound 122, 6-(4-(1H-indole-5-carbonyl)piperazin-1-yl)-8-cyclohexyl-3,4-dihydro-1H-pyrano[3,4-c]pyridine-5-carbonitrile] |
| 1 to 10 µM | N#Cc1c(N2CCN(C(=O)c3ccc4cc[nH]c4c3)CC2)nc(C2CCCCC2)c2c1CCOC2 [Compound 123, 6-(4-(1H-indole-6-carbonyl)piperazin-1-yl)-8-cyclohexyl-3,4-dihydro-1H-pyrano[3,4-c]pyridine-5-carbonitrile] |
| 1 to 10 µM | N#Cc1c(N2CCN(C(=O)c3ccco3)CC2)nc(C2CCCC2)c2c1CCOC2 [Compound 124, 8-cyclopentyl-6-(4-(furan-2-carbonyl)piperazin-1-yl)-3,4-dihydro-1H-pyrano[3,4-c]pyridine-5-carbonitrile] |
| 1 to 10 µM | C[C@@H]1CN(c2nc(C3CCCC3)c3c(c2C#N)CCOC3)C[C@H](C)N1C(=O)c1ccco1 [Compound 126, 8-cyclopentyl-6-((3S,5R)-4-(furan-2-carbonyl)-3,5-dimethylpiperazin-1-yl)-3,4-dihydro-1H-pyrano[3,4-c]pyridine-5-carbonitrile] |
| 1 to 10 µM | C[C@@H]1CN(c2nc(C3CCCCC3)c3c(c2C#N)CCOC3)C[C@H](C)N1C(=O)c1ccco1 [Compound 128, 8-cyclohexyl-6-((3S,5R)-4-(furan-2-carbonyl)-3,5-dimethylpiperazin-1-yl)-3,4-dihydro-1H-pyrano[3,4-c]pyridine-5-carbonitrile] |
| 1 to 10 µM | Cc1ccoc1C(=O)N1CCN(c2nc(C3CCCCC3)c3c(c2C#N)CCOC3)CC1 [Compound 129, 8-cyclohexyl-6-(4-(3-methylfuran-2-carbonyl)piperazin-1-yl)-3,4-dihydro-1H-pyrano[3,4-c]pyridine-5-carbonitrile] |
| 1 to 10 µM | N#Cc1c(N2CCN(C(=O)Cc3ccccc3)CC2)nc(C2CCCCC2)c2c1CCOC2 [Compound 131, 8-cyclohexyl-6-(4-(2-phenylacetyl)piperazin-1-yl)-3,4-dihydro-1H-pyrano[3,4-c]pyridine-5-carbonitrile] |
| 1 to 10 µM | CC1CN(c2nc(C3CCCCC3)c3c(c2C#N)CCOC3)CCN1C(=O)c1ccco1 (stereo not shown) [Compound 132, 8-cyclohexyl-6-(4-(furan-2-carbonyl)-3-methylpiperazin-1-yl)-3,4-dihydro-1H-pyrano[3,4-c]pyridine-5-carbonitrile] |
| 1 to 10 µM | CC1CN(c2nc(C3CCCCC3)c3c(c2C#N)CCOC3)CCN1C(=O)c1ccoc1 (stereo not shown) [Compound 133, 8-cyclohexyl-6-(4-(furan-3-carbonyl)-3-methylpiperazin-1-yl)-3,4-dihydro-1H-pyrano[3,4-c]pyridine-5-carbonitrile] |
| 1 to 10 µM | CC1CN(c2nc(C3CCCCC3)c3c(c2C#N)CCOC3)CCN1C(=O)c1ccc2[nH]ccc2c1 (stereo not shown) [Compound 134, 6-(4-(1H-indole-5-carbonyl)-3-methylpiperazin-1-yl)-8-cyclohexyl-3,4-dihydro-1H-pyrano[3,4-c]pyridine-5-carbonitrile] |

The next lines start with the molecule.

| Structure (SMILES) | IC50 |
| --- | --- |
| CC(C)c1nc(N2CCN(S(=O)(=O)c3cccs3)CC2)c(C#N)c2c1COCC2 [Compound 101] | 1 to 10 µM |
| CC(C)c1nc(N2CCN(C(=O)Nc3ccc(F)cc3)CC2)c(C#N)c2c1COCC2 [Compound 102, 4-(5-cyano-8-isopropyl-3,4-dihydro-1H-pyrano[3,4-c]pyridin-6-yl)-N-(4-fluorophenyl)piperazine-1-carboxamide] | 1 to 10 µM |
| COc1ccc(OC(=O)N2CCN(c3nc(C(C)C)c4c(c3C#N)CCOC4)CC2)cc1 [Compound 103, 4-methoxyphenyl 4-(5-cyano-8-isopropyl-3,4-dihydro-1H-pyrano[3,4-c]pyridin-6-yl)piperazine-1-carboxylate] | 1 to 10 µM |
| CC(C)c1nc(N2CCN(C(=O)c3c[nH]c4ccccc34)CC2)c(C#N)c2c1COCC2 [Compound 104, 6-(4-(1H-indole-3-carbonyl)piperazin-1-yl)-8-isopropyl-3,4-dihydro-1H-pyrano[3,4-c]pyridine-5-carbonitrile] | 1 to 10 µM |
| CC(C)c1nc(N2CCN(C(=O)c3ccc(Cl)c(Cl)c3)CC2)c(C#N)c2c1COCC2 [Compound 105, 6-(4-(3,4-dichlorobenzoyl)piperazin-1-yl)-8-isopropyl-3,4-dihydro-1H-pyrano[3,4-c]pyridine-5-carbonitrile] | 1 to 10 µM |
| CC(C)c1nc(N2CC(C)N(C(=O)NC3CCCCC3)C(C)C2)c(C#N)c2c1COCC2 (stereo not shown) [Compound 108, 4-(5-cyano-8-isopropyl-3,4-dihydro-1H-pyrano[3,4-c]pyridin-6-yl)-N-cyclohexyl-2,6-dimethylpiperazine-1-carboxamide] | 1 to 10 µM |
| CC(C)c1nc(N2C[C@@H](C)N(C(=O)NC3CCCCC3)[C@@H](C)C2)c(C#N)c2c1CCCC2 [Compound 109, (2S,6R)-4-(4-cyano-1-isopropyl-5,6,7,8-tetrahydroisoquinolin-3-yl)-N-cyclohexyl-2,6-dimethylpiperazine-1-carboxamide] | 1 to 10 µM |
| CC(C)c1nc(N2CCN(C(=O)c3ccco3)CC2c2ccccc2)c(C#N)c2c1COCC2 (stereo not shown) [Compound 111, 6-(4-(furan-2-carbonyl)-2-phenylpiperazin-1-yl)-8-isopropyl-3,4-dihydro-1H-pyrano[3,4-c]pyridine-5-carbonitrile] | 1 to 10 µM |
| Cc1ccc(-c2nc(N3CC(C)N(C(=O)c4ccco4)C(C)C3)c(C#N)c3c2COCC3)cc1 (stereo not shown) [Compound 112] | 1 to 10 µM |
| CC(C)c1nc(N2CC(C)N(C(=O)c3ccco3)CC2C)c(C#N)c2c1COCC2 (stereo not shown) [Compound 114, 6-(4-(furan-2-carbonyl)-2,5-dimethylpiperazin-1-yl)-8-isopropyl-3,4-dihydro-1H-pyrano[3,4-c]pyridine-5-carbonitrile] | 1 to 10 µM |
| CC(C)c1nc(N2CCN(C(=O)NC3CCCCC3)CC2)c(C#N)c2c1CCCC2 [Compound 115, 4-(4-cyano-1-isopropyl-5,6,7,8-tetrahydroisoquinolin-3-yl)-N-cyclohexylpiperazine-1-carboxamide] | 1 to 10 µM |
| CC(C)c1nc(N2CCN(C(=O)c3ccco3)CC2)c(C#N)c2c1CC(C)(C)CC2 [Compound 116, 3-(4-(furan-2-carbonyl)piperazin-1-yl)-1-isopropyl-7,7-dimethyl-5,6,7,8-tetrahydroisoquinoline-4-carbonitrile] | 1 to 10 µM |
| CC(C)c1nc(N2CCN(C(=O)c3ccco3)C(C)C2)c(C#N)c2c1CCCC2 (stereo not shown) [Compound 125, 3-(4-(furan-2-carbonyl)-3-methylpiperazin-1-yl)-1-isopropyl-5,6,7,8-tetrahydroisoquinoline-4-carbonitrile] | 1 to 10 µM |
| C[C@@H]1CN(c2nc(C3CCCC3)c3c(c2C#N)CCOC3)C[C@H](C)N1C(=O)NC1CCCCC1 [Compound 127, (2S,6R)-4-(5-cyano-8-cyclopentyl-3,4-dihydro-1H-pyrano[3,4-c]pyridin-6-yl)-N-cyclohexyl-2,6-dimethylpiperazine-1-carboxamide] | 1 to 10 µM |
| CC1CN(c2nc(-c3cccc(F)c3)c3c(c2C#N)CC(C)(C)OC3)CCN1C(=O)c1ccoc1 (stereo not shown) [Compound 130, 8-(3-fluorophenyl)-6-(4-(furan-3-carbonyl)-3-methylpiperazin-1-yl)-3,3-dimethyl-3,4-dihydro-1H-pyrano[3,4-c]pyridine-5-carbonitrile] | 1 to 10 µM |

— patent US9662327B2 (AGIOS PHARMACEUTICALS, INC, priority 2011, dated 2017)
